Reference: PMC7570625, “Design and Synthesis of a Novel NIR Celecoxib-Based Fluorescent Probe for Cyclooxygenase-2 Targeted Bioimaging in Tumor Cells” (Molecules, 2020)

Target: T1, COX-2 (Homo sapiens, UniProt P35354)
T1 construct: gene PTGS2
T1 sequence (P35354 18-604): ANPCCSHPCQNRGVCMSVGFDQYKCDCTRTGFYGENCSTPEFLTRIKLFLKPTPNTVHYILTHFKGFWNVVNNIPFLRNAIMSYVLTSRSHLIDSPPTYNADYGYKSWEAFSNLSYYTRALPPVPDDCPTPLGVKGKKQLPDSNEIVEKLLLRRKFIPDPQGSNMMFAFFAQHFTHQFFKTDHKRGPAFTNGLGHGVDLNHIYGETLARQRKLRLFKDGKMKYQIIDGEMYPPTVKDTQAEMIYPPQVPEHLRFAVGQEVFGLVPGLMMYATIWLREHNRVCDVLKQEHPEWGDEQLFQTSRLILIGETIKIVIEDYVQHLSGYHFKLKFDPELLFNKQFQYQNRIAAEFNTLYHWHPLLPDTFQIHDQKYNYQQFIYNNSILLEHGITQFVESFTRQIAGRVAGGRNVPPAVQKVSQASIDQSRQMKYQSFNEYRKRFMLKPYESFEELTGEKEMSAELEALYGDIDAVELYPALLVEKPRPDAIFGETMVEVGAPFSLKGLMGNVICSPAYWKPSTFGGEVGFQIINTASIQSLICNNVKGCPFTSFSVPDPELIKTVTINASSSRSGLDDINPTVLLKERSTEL
Assay: recombinant human COX-2 inhibition, PGE2 measured by UPLC-MS/MS
Type: biochemical

IC50: 1570 nM
SMILES: Cc1ccc(-c2cc(CNC(=O)CCCCC[N+]3=C(/C=C/C=C/C=C4/N(C)c5ccccc5C4(C)C)C(C)(C)c4ccccc43)nn2-c2ccc(S(N)(=O)=O)cc2)cc1 [CCY-5]
